Measured values from ChEMBL document CHEMBL5230117, “Chalcones: Unearthing their therapeutic possibility as monoamine oxidase B inhibitors” (Eur J Med Chem, 2020).

How the values were obtained:
[1] = target: T1, Amine oxidase [flavin-containing] B (Homo sapiens, UniProt P27338); test: Inhibition of human MAO-B using p-tyramine as substrate by fluorimetric based assay
T1 sequence (P27338 whole entry): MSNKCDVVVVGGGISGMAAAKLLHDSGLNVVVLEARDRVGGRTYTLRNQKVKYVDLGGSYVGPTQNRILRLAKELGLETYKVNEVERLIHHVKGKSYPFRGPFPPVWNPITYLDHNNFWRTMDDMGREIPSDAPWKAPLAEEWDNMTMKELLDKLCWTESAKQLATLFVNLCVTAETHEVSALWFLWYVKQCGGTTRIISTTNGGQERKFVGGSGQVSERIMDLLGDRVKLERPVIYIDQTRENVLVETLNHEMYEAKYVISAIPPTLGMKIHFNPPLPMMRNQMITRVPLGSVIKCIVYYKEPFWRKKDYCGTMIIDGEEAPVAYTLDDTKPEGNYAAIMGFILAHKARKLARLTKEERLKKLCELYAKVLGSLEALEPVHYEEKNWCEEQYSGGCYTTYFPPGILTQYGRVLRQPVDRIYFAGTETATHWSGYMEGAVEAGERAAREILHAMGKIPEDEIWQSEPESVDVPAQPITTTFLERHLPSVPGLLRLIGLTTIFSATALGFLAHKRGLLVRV

[2] = target: T1, Amine oxidase [flavin-containing] B; test: Binding affinity to human MAO-B using p-tyramine as substrate incubated for 15 mins by amplex red dye based microplate assay
Homo sapiens [3] = species on record: Homo sapiens; test: Selectivity index, ratio of IC50 for human MAO-A to IC50 for human MAO-B
[4] = target: T1, Amine oxidase [flavin-containing] B; test: Inhibition of human MAO-B using kynuramine as substrate incubated for 30 mins by fluorescence based assay; settings: 0.5 h
[5] = target: T1, Amine oxidase [flavin-containing] B; test: Binding affinity to human MAO-B using kynuramine as substrate incubated for 30 mins by absorbance based assay
[6] = target: T1, Amine oxidase [flavin-containing] B; test: Inhibition of human MAO-B using kynuramine as substrate incubated for 20 mins by fluorescence based assay relative to control
Homo sapiens [7] = species on record: Homo sapiens; test: Selectivity index, ratio of IC50 for human MAO-A to IC50 for human MAO-B by fluorescence based assay
[8] = target: T2, Amine oxidase [flavin-containing] A (Homo sapiens, UniProt P21397); test: Inhibition of human MAO-A using kynuramine as substrate incubated for 20 mins by fluorescence based assay relative to control
T2 sequence (P21397 whole entry): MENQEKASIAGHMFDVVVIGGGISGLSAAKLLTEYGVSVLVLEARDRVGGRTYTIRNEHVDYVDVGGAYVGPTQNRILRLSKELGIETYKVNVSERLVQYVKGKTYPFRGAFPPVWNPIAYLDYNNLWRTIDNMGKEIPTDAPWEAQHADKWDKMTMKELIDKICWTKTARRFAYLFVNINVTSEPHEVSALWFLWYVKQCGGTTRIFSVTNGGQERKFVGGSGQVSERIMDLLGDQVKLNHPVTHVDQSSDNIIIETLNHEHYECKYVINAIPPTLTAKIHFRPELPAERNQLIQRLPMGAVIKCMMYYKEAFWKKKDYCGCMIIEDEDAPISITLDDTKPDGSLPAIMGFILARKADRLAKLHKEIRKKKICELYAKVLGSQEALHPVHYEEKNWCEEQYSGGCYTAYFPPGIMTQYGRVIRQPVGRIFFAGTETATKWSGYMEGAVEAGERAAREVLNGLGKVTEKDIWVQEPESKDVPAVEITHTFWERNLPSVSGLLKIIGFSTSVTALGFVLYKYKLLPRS

[9] = target: T1, Amine oxidase [flavin-containing] B; test: Inhibition of human MAO-B using benzylamine as substrate
[10] = target: T2, Amine oxidase [flavin-containing] A; test: Inhibition of human MAO-A using kynuramine as substrate incubated for 10 mins by continuous spectrophotometric method

COc1cc2c(Nc3ccc(C(=O)/C=C/c4nc(C)c(C)nc4C)cc3)ncnc2c(OC)c1OC
IC50 [1]: 2600 nM

O=C(/C=C/c1ccc(Br)cc1)c1c[nH]c2ccccc12
Ki [2]: 10 nM | Ratio IC50 (Homo sapiens [3]): 120

COc1ccc(/C=C/C(=O)c2ccc(Cl)cc2)cc1
inhibition (INH) [4]: < 75%

COc1ccc(C(=O)/C=C/c2ccc(N(C)C)cc2)cc1
inhibition (INH) [4]: < 75%

O=C(/C=C/c1ccc(O)c(O)c1O)c1ccco1
Ki [5]: 3550 nM

O=C(/C=C/c1csc2ccccc12)c1ccco1
Ki [2]: 72 nM | Ratio IC50 (Homo sapiens [3]): 12.6

COc1cc(O)c(C(=O)/C=C/c2ccccc2O)c(OC)c1
IC50 [6]: 2710 nM | Ratio IC50 (Homo sapiens [7]): 0.14 | IC50 [8]: 390 nM

COC(=O)c1ccc(/C=C/C(=O)c2ccco2)cc1
Ki [5]: 300 nM

CC/C(C)=N/Oc1ccc(C(=O)/C=C/c2ccccc2)cc1
IC50 [9]: 86 nM | IC50 [10]: > 10000 nM | Ratio IC50 (Homo sapiens [3]): > 120

COc1cc(O)ccc1C(=O)/C=C/c1ccc(O)cc1
IC50 [6]: 380 nM | Ratio IC50 (Homo sapiens [7]): 9.9 | IC50 [8]: 10100 nM

CC(C)=CCC/C(C)=C/Cc1c(O)ccc(C(=O)/C=C/c2ccc(O)cc2)c1O [XANTHOANGELOL]
IC50 [6]: 13200 nM | Ratio IC50 (Homo sapiens [7]): > 3.03 | IC50 [8]: > 40000 nM

O=C(/C=C/c1ccc(Cl)cc1Cl)c1ccco1
Ki [5]: 850 nM

COc1ccc(C(=O)/C=C/c2ccc(O)cc2)c(O)c1CC=C(C)C
IC50 [6]: 1390 nM | Ratio IC50 (Homo sapiens [7]): > 28.8 | IC50 [8]: > 40000 nM

O=C(/C=C/C=C/c1ccccc1)c1ccco1
Ki [2]: 4.1 nM | Ratio IC50 (Homo sapiens [3]): 172
